# Reference: patent EP4755888A1 (ILAb Co., Ltd., priority 2023, dated 2025)
# Target: PD-1/PD-L1 (Homo sapiens, UniProt Q9NZQ7)
# Experiment: TR-FRET PD-1/PD-L1 binding inhibition at the molecular level (free proteins)
# Conditions: Tag1-PD-L1 and Tag2-PD-1 proteins, twelve concentrations from 200 nM, 2 hours at room temperature, read-out: FRET assay (IC50)
# Method in brief: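 HTRF read-out at 665/620 nm after 2 h at room temperature. Detection used anti-Tag1 Eu cryptate plus anti-Tag2 XL665 antibodies. Tagged PD-L1 and PD-1 proteins were pre-mixed with compound across twelve […] 1:2 dilutions starting at 200 nM.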
# PD-1/PD-L1, sequence (Q9NZQ7 19-238 limits assumed): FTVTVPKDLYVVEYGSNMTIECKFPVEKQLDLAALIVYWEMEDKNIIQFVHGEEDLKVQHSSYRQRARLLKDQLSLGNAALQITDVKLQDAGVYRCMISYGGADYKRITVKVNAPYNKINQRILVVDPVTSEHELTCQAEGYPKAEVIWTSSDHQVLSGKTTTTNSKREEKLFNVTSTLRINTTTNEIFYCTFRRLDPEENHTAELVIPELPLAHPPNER
row,SMILES,IC50 [nM]
1,"COc1cc(C(=O)Nc2cccc(-c3cccc(NC(=O)c4cc5n(n4)CCCC5N4CC[C@@H](C(=O)O)C4)c3Cl)c2Cl)cc(F)c1CNCC(=O)O (stereo partly drawn) [Compound 195, (3R)-1-(2-((3'-(4-(((carboxymethyl)amino)methyl)-3-fluoro-5-methoxybenzamido)-2,2'-dichloro-[1,1'-biphenyl]-3-yl)carbamoyl)-4,5,6,7-tetrahydropyrazolo[1,5-a]pyridin-4-yl)pyrrolidine-3-carboxylic acid]",< 10
2,"COc1cc(C(=O)Nc2cccc(-c3cccc(NC(=O)c4cc5n(n4)CCCC5N4CC[C@@H](C(=O)O)C4)c3Cl)c2Cl)cc(F)c1CN1CC[C@@H](O)C1 (stereo partly drawn) [Compound 196, (3R)-1-(2-((2,2'-dichloro-3'-(3-fluoro-4-(((R)-3-hydroxypyrrolidin-1-yl)methyl)-5-methoxybenzamido)-[1,1'-biphenyl]-3-yl)carbamoyl)-4,5,6,7-tetrahydropyrazolo[1,5-a]pyridin-4-yl)pyrrolidine-3-carboxylic acid]",< 10
3,"COc1cc(C(=O)Nc2cccc(-c3cccc(NC(=O)c4cc5n(n4)CCCC5N4CC[C@@H](C(=O)O)C4)c3Cl)c2Cl)cc(F)c1CN1CC[C@@H](C(=O)O)C1 (stereo partly drawn) [Compound 197, (3R)-1-(4-((3'-(4-((R)-3-carboxypyrrolidin-1-yl)-4,5,6,7-tetrahydropyrazolo[1,5-a]pyridine-2-carboxamido)-2,2'-dichloro-[1,1'-biphenyl]-3-yl)carbamoyl)-2-fluoro-6-methoxybenzyl)pyrrolidine-3-carboxylic acid]",10 to 100
4,"O=C(O)CNC1CCCn2nc(C(=O)Nc3cccc(-c4cccc(NC(=O)c5ccc(CNCCO)c(F)n5)c4Cl)c3Cl)cc21 (stereo not drawn) [Compound 198, 2-((2-((2,2'-dichloro-3'-(6-fluoro-5-(((2-hydroxyethyl)amino)methyl)picolinamido)-[1,1'-biphenyl]-3-yl)carbamoyl)-4,5,6,7-tetrahydropyrazolo[1,5-a]pyridin-4-yl)amino)acetic acid]",< 10
5,"O=C(Nc1cccc(-c2cccc(NC(=O)c3cc4n(n3)CCCC4N3CC[C@@H](C(=O)O)C3)c2Cl)c1Cl)c1ccc(CNCCO)c(F)n1 (stereo partly drawn) [Compound 199, (3R)-1-(2-((2,2'-dichloro-3'-(6-fluoro-5-(((2-hydroxyethyl)amino)methyl)picolinamido)-[1,1'-biphenyl]-3-yl)carbamoyl)-4,5,6,7-tetrahydropyrazolo[1,5-a]pyridin-4-yl)pyrrolidine-3-carboxylic acid]",< 10
6,"O=C(O)CNC1CCCn2nc(C(=O)Nc3cccc(-c4cccc(NC(=O)c5ncc(CNCCO)cc5F)c4Cl)c3Cl)cc21 (stereo not drawn) [Compound 200, 2-((2-((2,2'-dichloro-3'-(3-fluoro-5-(((2-hydroxyethyl)amino)methyl)picolinamido)-[1,1'-biphenyl]-3-yl)carbamoyl)-4,5,6,7-tetrahydropyrazolo[1,5-a]pyridin-4-yl)amino)acetic acid]",< 10
7,"O=C(Nc1cccc(-c2cccc(NC(=O)c3ncc(CNCCO)cc3F)c2Cl)c1Cl)c1cc2n(n1)CCCC2N1CC[C@@H](C(=O)O)C1 (stereo partly drawn) [Compound 201, (3R)-1-(2-((2,2'-dichloro-3'-(3-fluoro-5-(((2-hydroxyethyl)amino)methyl)picolinamido)-[1,1'-biphenyl]-3-yl)carbamoyl)-4,5,6,7-tetrahydropyrazolo[1,5-a]pyridin-4-yl)pyrrolidine-3-carboxylic acid]",< 10
8,"O=C(O)CNC1CCCn2nc(C(=O)Nc3cccc(-c4cccc(NC(=O)c5ccc(CN6CC[C@@H](O)C6)c(F)n5)c4Cl)c3Cl)cc21 (stereo partly drawn) [Compound 202, 2-((2-((2,2'-dichloro-3'-(6-fluoro-5-(((R)-3-hydroxypyrrolidin-1-yl)methyl)picolinamido)-[1,1'-biphenyl]-3-yl)carbamoyl)-4,5,6,7-tetrahydropyrazolo[1,5-a]pyridin-4-yl)amino)acetic acid]",< 10
9,"O=C(Nc1cccc(-c2cccc(NC(=O)c3cc4n(n3)CCCC4N3CC[C@@H](C(=O)O)C3)c2Cl)c1Cl)c1ccc(CN2CC[C@@H](O)C2)c(F)n1 (stereo partly drawn) [Compound 203, (3R)-1-(2-((2,2'-dichloro-3'-(6-fluoro-5-(((R)-3-hydroxypyrrolidin-1-yl)methyl)picolinamido)-[1,1'-biphenyl]-3-yl)carbamoyl)-4,5,6,7-tetrahydropyrazolo[1,5-a]pyridin-4-yl)pyrrolidine-3-carboxylic acid]",< 10
10,"O=C(O)CNC1CCCn2nc(C(=O)Nc3cccc(-c4cccc(NC(=O)c5ncc(CN6CC[C@@H](O)C6)cc5F)c4Cl)c3Cl)cc21 (stereo partly drawn) [Compound 204, 2-((2-((2,2'-dichloro-3'-(3-fluoro-5-(((R)-3-hydroxypyrrolidin-1-yl)methyl)picolinamido)-[1,1'-biphenyl]-3-yl)carbamoyl)-4,5,6,7-tetrahydropyrazolo[1,5-a]pyridin-4-yl)amino)acetic acid]",< 10
11,"O=C(Nc1cccc(-c2cccc(NC(=O)c3ncc(CN4CC[C@@H](O)C4)cc3F)c2Cl)c1Cl)c1cc2n(n1)CCCC2N1CC[C@@H](C(=O)O)C1 (stereo partly drawn) [Compound 205, (3R)-1-(2-((2,2'-dichloro-3'-(3-fluoro-5-(((R)-3-hydroxypyrrolidin-1-yl)methyl)picolinamido)-[1,1'-biphenyl]-3-yl)carbamoyl)-4,5,6,7-tetrahydropyrazolo[1,5-a]pyridin-4-yl)pyrrolidine-3-carboxylic acid]",< 10
12,"O=C(Nc1cccc(-c2cccc(Nc3nccc4cc(CN5CC[C@@H](O)C5)cnc34)c2Cl)c1Cl)c1cc2n(n1)CCCC2N1CC[C@@H](C(=O)O)C1 (stereo partly drawn) [Compound 228, (3R)-1-(2-((2,2'-dichloro-3'-((3-(((R)-3-hydroxypyrrolidin-1-yl)methyl)-1,7-naphthyridin-8-yl)amino)-[1,1'-biphenyl]-3-yl)carbamoyl)-4,5,6,7-tetrahydropyrazolo[1,5-a]pyridin-4-yl)pyrrolidine-3-carboxylic acid]",10 to 100
13,"O=C(Nc1cccc(-c2cccc(Nc3nccc4cc(CN5CC[C@@H](O)C5)cnc34)c2Cl)c1Cl)c1cc2n(n1)CCCC2NC(CO)CO (stereo partly drawn) [Compound 230, N-(2,2'-dichloro-3'-((3-(((R)-3-hydroxypyrrolidin-1-yl)methyl)-1,7-naphthyridin-8-yl)amino)-[1,1'-biphenyl]-3-yl)-4-((1,3-dihydroxypropan-2-yl)amino)-4,5,6,7-tetrahydropyrazolo[1,5-a]pyridine-2-carboxamide]",10 to 100
14,"O=C(Nc1cccc(-c2cccc(Nc3nccc4cc(CN5CC[C@@H](O)C5)cnc34)c2Cl)c1Cl)c1cc2n(n1)CCCC2NC1CCOCC1 (stereo partly drawn) [Compound 231, N-(2,2'-dichloro-3'-((3-(((R)-3-hydroxypyrrolidin-1-yl)methyl)-1,7-naphthyridin-8-yl)amino)-[1,1'-biphenyl]-3-yl)-4-((tetrahydro-2H-pyran-4-yl)amino)-4,5,6,7-tetrahydropyrazolo[1,5-a]pyridine-2-carboxamide]",10 to 100
15,"O=C(Nc1cccc(-c2cccc(Nc3nccc4cc(CN5CC[C@@H](O)C5)cnc34)c2Cl)c1Cl)c1cc2n(n1)CCCC2N1CC(O)C1 (stereo partly drawn) [Compound 232, N-(2,2'-dichloro-3'-((3-(((R)-3-hydroxypyrrolidin-1-yl)methyl)-1,7-naphthyridin-8-yl)amino)-[1,1'-biphenyl]-3-yl)-4-(3-hydroxyazetidin-1-yl)-4,5,6,7-tetrahydropyrazolo[1,5-a]pyridine-2-carboxamide]",10 to 100
